Results as given in the NIST ThermoML archive (doi:10.1016/j.fluid.2017.03.015).
Numbers after ± are expanded uncertainties.

Conditions: Crystal; visual observation

Row | SMILES | Normal melting temperature [°C]
1 | CCC(=O)[O-].C[N+](C)(C)CCO [cholinium propanoate] | 9.42 ± 0.41
2 | CCCC[N+](CCCC)(CCCC)CCCC.[Cl-] [tetrabutylammonium chloride] | 69.67 ± 0.41
3 | CCn1cc[n+](C)c1.[Cl-] [1-ethyl-3-methylimidazolium chloride] | 77.27 ± 0.41
4 | CCCC[P+](CCCC)(CCCC)CCCC.[Cl-] [tetrabutylphosphonium chloride] | 66.31 ± 0.41
5 | C[n+]1ccn(CCO)c1.[Cl-] [1-(2-hydroxyethyl)-3-methyl-1H-imidazolium chloride] | 85.73 ± 0.41
6 | CCCC(=O)[O-].C[N+](C)(C)CCO [choline butanoate] | 42.83 ± 0.41
7 | CCCCCCCCC(C[N+](C)(C)Cc1ccccc1)C(C)O.[Cl-] (stereo not given) [benzyldimethyl-2-(1-hydroxyethyl)decylammonium chloride] | 78.27 ± 0.41
8 | C[N+](C)(C)CCO.O=S(=O)([N-]S(=O)(=O)C(F)(F)F)C(F)(F)F [choline bis(trifluoromethylsulfonyl)imide] | 32.50 ± 0.41
9 | CC(=O)[O-].C[N+](C)(C)CCO [choline acetate] | 89.47 ± 0.41
10 | CCCC[N+]1(C)CCCC1.[Cl-] [1-butyl-1-methylpyrrolidinium chloride] | 199.83 ± 0.41
